Entries after “also recorded” stand apart in the source; their conditions may differ.
Experiments:
HT-1080 cells [1] = assay: Cell death assay (PI flow cytometry), HT-1080 cells incl. knockout lines; conditions: for cell death in combination with RSL3: combined with RSL3, compared to RSL3 alone; for cell death in combination with FIN56: combined with ferroptosis inducer FIN56; for cell death in combination with ML-162: combined with ferroptosis inducer ML-162; for cell death over various concentrations of RSL3: combined with various concentrations of RSL3; for rescue of RSL3 plus sulfite induced cell death or decrease in cell viability: cell death inhibitors added to RSL3 plus sulfite; for cell death in combination with JKE-1674: combined with ferroptosis inducer JKE-1674 (JKE); for cell death in MTHFD2 knockout cells: ferroptosis inducer in MTHFD2 knockout HT-1080 cells; for cell death in SHMT2 knockout cells: ferroptosis inducer in SHMT2 knockout cells
Experimental: Initially, the effect of sulfite on ferroptosis was studied. […] Each group was treated with vehicle alone or with sulfite.
The knockout cells were identified by immunoblotting.
Briefly, cells were seeded in 12-well plates and incubated overnight. After treatment, cells were trypsinized and collected. After washing with cold phosphate-buffered saline (PBS), the cells were stained with 2 μg/mL propidium iodide (PI) in cold PBS. […] All experiments were performed in triplicates.

HT-1080 cells [2] = assay: Relative mitochondrial lipid peroxidation level; type: cell-based, human; conditions: for relative mitochondrial lipid peroxidation level in combination with RSL3: combined with RSL3, compared to RSL3 alone
HT-1080 cells [3] = assay: Lipid peroxidation measurement (C11-BODIPY 581/591, flow cytometry); type: cell-based, human; conditions: for relative lipid peroxidation level in combination with RSL3: combined with RSL3, compared to RSL3 alone
Experimental: Cells were seeded on 12-well plates and incubated overnight. After treating with compounds for indicated time, cells were incubated in media containing 5 μM C11-BODIPY 581/591 (Invitrogen) for 30 min at 37° C. Then cells were trypsinized and collected. […] All experiments were performed in triplicates.

[4] = system: HT-1080, 786-O, U87, T98G, RCC4, H1299, A549, Hela and Hs578T; assay: Cell death assay (PI flow cytometry), panel of cancer cell lines; type: cell-based, human; conditions: for enhancement of ferroptosis induced by RSL3: panel of cell lines tested
Experimental: All cell lines used in this study were free of mycoplasma contamination (per testing done by the vendor). All the cells were cultured in a 37° C. incubator in a 5% CO2 atmosphere. H1299 cells were cultured in RPMI-1640 medium supplemented with 10% fetal bovine serum and 10,000 U/mL penicillin-streptomycin. HT-1080, 786-O, U87, T98G, RCC4, A549, Hela and Hs578T cells were cultured in Dulbecco modified Eagle medium (DMEM) supplemented with 10% fetal bovine serum and 10,000 U/mL of penicillin-streptomycin.
After treatment, cells were trypsinized and collected. […] All experiments were performed in triplicates.

NADP+/NADPH = assay: NADP+ and NADPH measurement; type: cell-based; conditions: treated vs untreated cells
HT-1080 cells [5] = assay: Cell viability assay (CCK-8); type: cell-based, human
Experimental: Cell viability was measured using a Cell Counting Kit-8 (CCK-8, Dojindo) as previously described (Koppula, P., et al. J Biol Chem 292, 14240-14249, doi: 10.1074/jbc.M117.798405 (2017); Liu, X. et al. Nat Cell Biol 18, 431-442, doi: 10.1038/ncb3328 (2016)). In brief, cells were seeded onto 96-well plates at a density of 1×10^4 per well. The next day, cells were treated with indicated compound for 16-20 h. Subsequently, cells were changed to new 100 μl medium containing 10 μl CCK-8 reagent for 1 h at 37° C., 5% CO2 in incubator. The absorbance at 450 nm was determined using a FLUOstar Omega microplate reader (BMG Labtech).

[6] = system: HT-1080-derived xenografts; assay: HT-1080-derived xenograft in nude mice; type: in vivo; conditions: for growth of HT-1080-derived xenografts (tumor volume): nude mice
Text: To assess the in vivo impact of the combination of SHMT inhibition and GPX4 inhibition, the SHMT inhibitor sertraline was utilized, an FDA-approved drug, and the GPX4 inhibitor JKE-1674 for both in vitro and in vivo cell treatments. The data reveal that both SHIN2 and sertraline sensitize cancer cells to JKE-1674-induced ferroptosis (FIG. 11A-11B). […] Additionally, liproxstain-1 reversed the 4-HNE staining score back to levels similar to the vehicle control (FIG. 11F-I).

LKR-13 tumor = LKR-13 tumor growth in 129/Sv mouse model; type: in vivo
Text: The assessment of ferroptosis function on the growth of either cell-derived or patient-derived xenografts is typically conducted in immunodeficient mice, such as nude mice or NSG mice. However, for applications in clinical settings, it becomes important to evaluate ferroptosis function in immunocompetent mice. To gain a more comprehensive understanding of the role of SHMT2 inhibition in combination with ferroptosis in cancer treatment, the investigations were extended to LKR13, a mouse cell line, both in vitro and in vivo. Initially, it was confirmed that sertraline promotes JKE-1674-induced ferroptosis in vitro (FIG. 11J-11K). Subsequently, the effects of sertraline, JKE-1674, and their combination were examined on a LKR-13 tumor growth in a 129/Sv mouse model.

LKR13, a mouse cell line = assay: Cell death of LKR-13 cells in vitro; type: cell-based; conditions: 24 hrs
Experimental: Cell death was measured and analyzed using flow cytometry as described previously (Zhang, Y., et al. Cell Cycle 18, 773-783, doi: 10.1080/15384101.2019.1597506 (2019); Koppula, P. et al. Nature communications 13, 2206, doi: 10.1038/s41467-022-29905-1 (2022)). Briefly, cells were seeded in 12-well plates and incubated overnight. After treatment, cells were trypsinized and collected. After washing with cold phosphate-buffered saline (PBS), the cells were stained with 2 μg/mL propidium iodide (PI) in cold PBS. The fraction of dead cells (PI-positive cells) was measured using a Attune Flow Cytometer (ThermoFisher) and analyzed by FlowJo 10 software (Lin, A. et al. Oncogene 33, 3183-3194, doi: 10.1038/one.2013.273 (2014); Liu, X. & Gan, B. et al. Cell Cycle 15, 3471-3481, doi: 10.1080/15384101.2016.1249545 (2016)). All experiments were performed in triplicates.

[7] = RSL3 treated SUOX knockout cells
[8] = HT-1080 tumors, immunochemistry

SMILES: O=S(O)(O)=S [thiosulfate, Sodium Thiosulfate]
- cell death as observed visually (HT-1080 cells [1]; 0.5 mM, cancer cells, presence or absence of RSL3): to a very small extent
- cell death in combination with RSL3 (HT-1080 cells [1]): significantly more than the cell death observed with vehicle control upon treatment with RSL3, but less than the cell death observed with sulfite

SMILES: Nc1nc2ccn(CCCCc3ccc(C(=O)N[C@@H](CCC(=O)O)C(=O)O)c(F)c3)c2c(=O)[nH]1 [AGF347]
- relative mitochondrial lipid peroxidation level in combination with RSL3 (HT-1080 cells [2]): increased relative mitochondrial lipid peroxidation level; also recorded: increase mitochondrial lipid peroxidation
- cell death in combination with RSL3 (HT-1080 cells [1]): increase cell death
- cell death in combination with FIN56 (HT-1080 cells [1]): also observed; also recorded: increase cell death
- cell death in combination with ML-162 (HT-1080 cells [1]): also observed; also recorded: increase cell death
- cell death over various concentrations of RSL3 (HT-1080 cells [1]): enhance cell death
- relative lipid peroxidation level in combination with RSL3 (HT-1080 cells [3]): increased lipid peroxidation levels; also recorded: increase lipid peroxidation

SMILES: CCOC(=O)c1ccc(NC2CCCCC2)c(N)c1 [Fer-1, Ferrostatin-1]
- rescue of ferroptosis induced by the combination of RSL3 and sulfite ([4]; Fer-1 5 μm): could be rescued
- rescue of the impact of SUOX knockout on RSL3 cell death (HT-1080 cells [1]; Fer-1 and RSL3, SUOX knockout HT-1080 cells): rescued
- cell death of RSL3 and 6-AN combination when combined with Ferr-1 (HT-1080 cells [1]; RSL3 + 6-AN + Ferr-1): did not induce cell death
- SHMT2 knockout increase of RSL3 mediated cell death when combined with Fer-1 (HT-1080 cells [1]; RSL3 + Fer-1, SHMT2 knockout cells): not observed
- rescue of RSL3 plus sulfite induced cell death or decrease in cell viability (HT-1080 cells [1]): rescued

SMILES: Cc1n[nH]c2c1[C@](c1cc(C#CCCCO)cc(CO)c1)(C(C)C)C(C#N)=C(N)O2 [SHIN2]
- NADP+/NADPH ratio (NADP+/NADPH): higher
- enhancement of ferroptosis induced by RSL3 [4]: enhance ferroptosis
- relative mitochondrial lipid peroxidation level in combination with RSL3 (HT-1080 cells [2]): increased relative mitochondrial lipid peroxidation level; also recorded: increase mitochondrial lipid peroxidation
- cell death in combination with RSL3 (HT-1080 cells [1]): increase cell death
- cell death in combination with FIN56 (HT-1080 cells [1]): also observed; also recorded: increase cell death
- cell death in combination with JKE-1674 (HT-1080 cells [1]): enhance cell death; also recorded: sensitize
- cell death in combination with ML-162 (HT-1080 cells [1]): also observed; also recorded: increase cell death
- cell death over various concentrations of RSL3 (HT-1080 cells [1]): enhance cell death
- relative lipid peroxidation level in combination with RSL3 (HT-1080 cells [3]): increased lipid peroxidation levels; also recorded: increase lipid peroxidation

SMILES: COC(=O)c1ccc([C@H]2c3[nH]c4ccccc4c3C[C@H](C(=O)OC)N2C(=O)CCl)cc1 [RSL3]
- cell viability in SHMT2 knockout cells (HT-1080 cells [5]; varying concentrations of RSL3, SHMT2 knockout): reduced
- relative mitochondrial lipid peroxidation level % in SUOX knockout cells (HT-1080 cells [2]; [7]): mirrored
- mitochondrial lipid peroxidation level in SHMT2 knock out cells (HT-1080 cells [2]; upon RSL3 treatment): increased mitochondrial lipid peroxidation level
- cell death in SUOX knockout cells vs sg control cells (HT-1080 cells [1]; SUOX knockout HT-1080 cells): Greater cell death
- cell death in MTHFD2 knockout cells (HT-1080 cells [1]): significantly increase
- cell death in SHMT2 knockout cells (HT-1080 cells [1]): increased
- relative lipid peroxidation level % in SUOX knockout cells (HT-1080 cells [3]; [7]): mirrored
- lipid peroxidation level in SHMT2 knock out cells (HT-1080 cells [3]; upon RSL3 treatment): increased lipid peroxidation level

SMILES: Cc1n[nH]c2c1[C@](c1cc(CO)cc(-c3ccccc3)c1)(C(C)C)C(C#N)=C(N)O2 [SHIN1]
- NADP+/NADPH ratio (NADP+/NADPH): higher
- enhancement of ferroptosis induced by RSL3 [4]: enhance ferroptosis
- relative mitochondrial lipid peroxidation level in combination with RSL3 (HT-1080 cells [2]): increased relative mitochondrial lipid peroxidation level; also recorded: increase mitochondrial lipid peroxidation
- cell death in combination with RSL3 (HT-1080 cells [1]): increase cell death
- cell death in combination with FIN56 (HT-1080 cells [1]): also observed; also recorded: increase cell death
- cell death in combination with ML-162 (HT-1080 cells [1]): also observed; also recorded: increase cell death
- cell death over various concentrations of RSL3 (HT-1080 cells [1]): enhance cell death
- relative lipid peroxidation level in combination with RSL3 (HT-1080 cells [3]): increased lipid peroxidation levels; also recorded: increase lipid peroxidation

SMILES: O=S(=O)([O-])[O-].[Na+].[Na+] [Sulfate, Sodium sulfate]
- cell death in combination with RSL3 (HT-1080 cells [1]): did not synergistically increase

SMILES: N[C@@H](CSS(=O)(=O)O)C(=O)O [S-sulfocysteine]
- cell viability when combined with different concentrations of RSL3 (HT-1080 cells [5]; combined with RSL3, range of concentrations): sensitized
- cell death in combination with RSL3 (HT-1080 cells [1]): sensitized
- cell death in combination with FIN56 (HT-1080 cells [1]): sensitized
- cell death in combination with JKE-1674 (HT-1080 cells [1]): sensitized
- cell death in combination with ML-162 (HT-1080 cells [1]): sensitized
- cell death in combination with ML-210 (HT-1080 cells [1]; combined with ferroptosis inducer ML-210): sensitized
- relative lipid peroxidation level in combination with FIN56 (HT-1080 cells [3]; combined with FIN56): increased
- relative lipid peroxidation level in combination with RSL3 (HT-1080 cells [3]): increased

SMILES: O=S(=O)(NC1CCCCC1)c1ccc2c(c1)C(=NO)c1cc(S(=O)(=O)NC3CCCCC3)ccc1-2 [FIN56]
- cell death in SHMT2 knockout cells (HT-1080 cells [1]): induced cell death and or decrease viability

SMILES: Clc1cccc(CN=C2Nc3ccccc3NC23CCNCC3)c1 [liproxstain-1, Liproxstatin-1]
- 4-HNE staining score when added to JKE-1674+sertraline ([6]; HT-1080 tumors, JKE-1674+sertraline+Lip-1): reversed
- rescue of RSL3 plus sulfite induced cell death or decrease in cell viability (HT-1080 cells [1]): rescued

SMILES: O=C(/C(C[N+](=O)[O-])=N/O)N1CCN(C(c2ccc(Cl)cc2)c2ccc(Cl)cc2)CC1 [JKE-1674]
- LKR13 tumor graft growth (LKR-13 tumor): did not impact
- growth of HT-1080-derived xenografts (tumor volume) [6]: no discernible effect
- cell death in MTHFD2 knockout cells (HT-1080 cells [1]): significantly increase
- cell death in SHMT2 knockout cells (HT-1080 cells [1]): induced cell death and or decrease viability

SMILES: CN[C@H]1CC[C@@H](c2ccc(Cl)c(Cl)c2)c2ccccc21 [sertraline]
- LKR13 tumor graft growth (LKR-13 tumor): did not impact
- staining for Ki-67 in tumors [6, 8]: did not alter staining
- staining for cleaved caspase-3 in tumors [6, 8]: did not alter staining
- growth of HT-1080-derived xenografts (tumor volume) [6]: no discernible effect
- relative mitochondrial lipid peroxidation level in combination with RSL3 (HT-1080 cells [2]): significantly increase
- JKE-1674-induced ferroptosis in vitro (LKR13, a mouse cell line): promotes
- cell death in combination with RSL3 (HT-1080 cells [1]): significantly increase
- cell death in combination with JKE-1674 (HT-1080 cells [1]): enhance cell death; also recorded: sensitize
- cell death in combination with ML-162 (HT-1080 cells [1]): significantly enhance
- cell death over various concentrations of RSL3 (HT-1080 cells [1]): enhance cell death
- relative lipid peroxidation level in combination with RSL3 (HT-1080 cells [3]): significantly increase

SMILES: COc1ccc(N(C(=O)CCl)C(C(=O)NCCc2ccccc2)c2cccs2)cc1Cl (stereo not drawn) [ML-162]
- cell death in MTHFD2 knockout cells (HT-1080 cells [1]): significantly increase
- cell death in SHMT2 knockout cells (HT-1080 cells [1]): induced cell death and or decrease viability

SMILES: NC(=O)c1ccc(N)nc1 [6-AN, 6-Aminonicotinamide]
- cell death in combination with RSL3 (HT-1080 cells [1]): enhanced the cell death
- cell death induced by the agent on its own (HT-1080 cells [1]; without RSL3): did not induce cell death on its own
